# Test results from US10981899B2, “Inhibitors of soluble adenylyl cyclase” (CORNELL UNIVERSITY, priority 2016, dated 2021).
# pIC50: −log10 of the molar value.
# Assays:
# MEFs = assay: CellTiter-Glo cytotoxicity assay; format: cell-based, mouse
# Protocol: Cell viability, as determined by CellTiter-Glo, is shown as luminescence; values are averages of triplicate determinations ±S.E.M. of a representative experiment repeated at least two times. […] Data represent single measurements of a representative experiment repeated at least two times.
# (§1) The next day, compounds were added (ten concentrations), and the plates were incubated for 24 or 48 hrs at 37° C./5% CO2, and viability was quantified by measuring cellular ATP using luminescence (CellTiter-Glo®, Promega, Madison, Wis., USA) or viability based upon amount of DNA (CyQUANT®, ThermoFisher).
# mouse brain mitochondria = assay: Membrane potential in isolated mouse brain mitochondria (uncoupling); conditions: 50 and 100 μM LRE1, 50 μM KH7
# [1] = CyQUANT cell proliferation/viability assay; format: cell-based
# Protocol: as §1
# sAC = sAC (Homo sapiens (Human), UniProt Q96PN6); assay: ELISA-based Correlate-EIA Direct cAMP Assay of in vitro sAC activity
# Source text: To avoid assay dependent artifacts, reproducibility and concentration-dependency were simultaneously assessed in the RF-MSS cyclase assay as well as in an independent colorimetric competitive enzyme immunoassay (i.e., ELISA-based Correlate-EIA Direct cAMP Assay).
# human sACt protein [2] = biological target: T1, human sACt protein (Homo sapiens (Human), UniProt Q96PN6); assay: RF-MSS in vitro cyclase assay, concentration-response
# Protocol: To avoid assay dependent artifacts, reproducibility and concentration-dependency were simultaneously assessed in the RF-MSS cyclase assay as well as in an independent colorimetric competitive enzyme immunoassay (i.e., ELISA-based Correlate-EIA Direct cAMP Assay). […] This instrument also includes a Zymark Twister® robotic arm that handles microtiter plates and a purification SPE system. 35 μl of sample was aspirated from each well of a 384-well reaction microtiter plate and then injected onto a graphitized carbon SPE column extraction cartridge, washing with aqueous alkaline buffer and eluting it in an alkaline/organic solvent, onto the electrospray-MS, where the mass spectra of each sample was collected. The RapidFire sipper was washed between sample injections using organic (25% acetonitrile, 25% acetone in 5 mM ammonium acetate, pH 10) and aqueous (5 mM ammonium acetate, pH 10) solvents. RapidFire mass spectrometry screening data were processed and analyzed using Agilent MassHunter Software.
# human sACt protein [3] = biological target: T1, human sACt protein; assay: Primary high-throughput screen for sAC inhibitors (RF-MSS cyclase assay); format: biochemical; conditions: screened at 10 μM; 1 mM ATP, 5 mM MgCl2, 5 mM CaCl2, 40 mM NaHCO3
# Protocol: This instrument also includes a Zymark Twister® robotic arm that handles microtiter plates and a purification SPE system. 35 μl of sample was aspirated from each well of a 384-well reaction microtiter plate and then injected onto a graphitized carbon SPE column extraction cartridge, washing with aqueous alkaline buffer and eluting it in an alkaline/organic solvent, onto the electrospray-MS, where the mass spectra of each sample was collected. The RapidFire sipper was washed between sample injections using organic (25% acetonitrile, 25% acetone in 5 mM ammonium acetate, pH 10) and aqueous (5 mM ammonium acetate, pH 10) solvents. RapidFire mass spectrometry screening data were processed and analyzed using Agilent MassHunter Software.
# The primary screen was performed in polystyrene 384-well microplates (Greiner Bio One International AG). […] The reagents were dispensed using a liquid handling instrument Multidrop™ Combi Assay buffer (50 mM Tris pH 7.5, 5 mM CaCl2, 5 mM MgCl2, 40 mM NaHCO3, 2 mM DTT) was added first on the 384-well plate (Greiner Bio-One) followed by the compounds. The small molecule compounds were dispensed with a nanohead containing a 384-well array of Norgren Kloehn nanosyringes, and each plate was bar-coded. The human sACt protein was added next followed by the remainder of the assay buffer. […]
# T1 sequence (Q96PN6 1-469): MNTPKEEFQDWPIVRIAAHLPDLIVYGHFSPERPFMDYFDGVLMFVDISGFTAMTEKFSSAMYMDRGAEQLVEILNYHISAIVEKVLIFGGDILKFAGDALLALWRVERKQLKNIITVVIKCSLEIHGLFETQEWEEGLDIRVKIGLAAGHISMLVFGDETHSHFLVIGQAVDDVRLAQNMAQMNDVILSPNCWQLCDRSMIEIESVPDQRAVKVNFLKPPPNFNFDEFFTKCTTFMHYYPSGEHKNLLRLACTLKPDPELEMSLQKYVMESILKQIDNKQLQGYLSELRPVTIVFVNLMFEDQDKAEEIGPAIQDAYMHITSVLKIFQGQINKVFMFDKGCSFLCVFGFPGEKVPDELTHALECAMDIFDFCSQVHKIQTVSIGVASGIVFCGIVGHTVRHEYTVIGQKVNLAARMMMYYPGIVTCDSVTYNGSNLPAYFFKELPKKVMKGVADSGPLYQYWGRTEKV
# Chain of sAC (Q96PN6 1-469): as above
mitochondrial uncoupling (mouse brain mitochondria),pIC50 (sAC),pIC50 (human sACt protein [2]),Primary Screen (% NPI) (human sACt protein [3]),Structure (SMILES),"toxicity (CellTiter-Glo) (MEFs; 2 days in culture, WT MEFs, KH7 at low μM, LRE1 up to 50 μM)",toxicity (CellTiter-Glo) (MEFs; single day in culture),toxicity (CyQUANT) ([1]; second day),toxicity (CyQUANT) ([1]; single day)
uncoupling effect,,,,CC(Sc1nc2ccccc2[nH]1)C(=O)N/N=C/c1cc(Br)ccc1O (centres unmarked) [KH7],toxic,neither compound exhibited significant toxicity,toxic at low μM concentrations,neither LRE1 nor KH7 were toxic
,< 4.70,< 4.70,58.1,Cc1cccc(-n2nc(S)sc2=S)c1 [RU-0207328],,,,
